# Measured values reported in patent EP1202746B1, “NSAID AND EGFR KINASE INHIBITOR CONTAINING COMPOSITION FOR THE TREATMENT OR INHIBITION OF COLONIC POLYPS AND COLORECTAL CANCER” (Wyeth Holdings Corporation, priority 1999, dated 2001).
# Test system: intestinal polyps (adenomas)
# Test: Min mouse intestinal polyp test procedure emulating familial adenomatous polyps (FAP); polyps counted on day 61
# Format: in vivo, Min mouse (C57BL/6J-Min/+)
# Source text: The procedure described below emulates familial adenomatous polyps (FAP) in humans using the Min mouse (C57BL/6J-Min/+), which is a strain which has […] of the APC gene. These animals develop multiple intestinal polyps (adenomas) that ultimately progress to form adenocarcinomas. The polyps that develop in Min mice express EGFR and have activated COX-2.
# Test animals were divided into four treatment groups: Group I, control; Group II, N-[4-[(3-bromophenyl)amino]-6-quinazolinyl]-2-butynamide; Group III, sulindac; and Group IV, combination of sulindac and N-[4-[(3-bromophenyl)amino]-6-quinazolinyl]-2-butynamide (hereinafter referred to as the NSAID/EGFR kinase inhibitor combination). The test compound was blended with a standard murine chow and animals were given ad libitum access to the food, in quantities corresponding to the following approximate daily dosages: Group II - 40 mg/kg/day N-[4-[(3-bromophenyl)amino]-6-quinazolinyl]-2-butynamide; […]; and Group IV - 40 mg/kg/day N-[4-[(3-bromophenyl)amino]-6-quinazolinyl]-2-butynamide and 20 mg/kg/day sulindac. The animals were treated for 60 days. The food was weighed once per week to determine consumption, and the animals also weighed weekly. On day 61, the animals were euthanized with CO2 inhalation, and the entire intestinal tract from stomach to anus was removed. The intestinal tract was injected with Bouins fixative, and allowed to fix for several days. The intestinal tracts were then opened and the number of polyps counted. Statistical analysis was performed using the Student's t-Test; a p value of ≤ 0.05 is considered statistically significant.
# The animals were treated for 60 days. The food was weighed once per week to determine consumption, and the animals also weighed weekly. On day 61, the animals were euthanized with CO2 inhalation, and the entire intestinal tract from stomach to anus was removed. The intestinal tract was injected with Bouins fixative, and allowed to fix for several days. The intestinal tracts were then opened and the number of polyps counted. Statistical analysis was performed using the Student's t-Test; a p value of ≤ 0.05 is considered statistically significant.
structure (smiles),measurement,setting,value
CCOc1cc2ncc(C#N)c(Nc3ccc(F)c(Cl)c3)c2cc1NC(=O)C=CCN(C)C [4-dimethylamino-but-2-enoic acid [4-(3-chloro-4-fluoro-phenylamino)-3-cyano-7-ethoxy-quinolin-6-yl]-amide],reduced polyp numbers,"third run, alone, 20 mg/kg, 60 days, versus control",87%
CC#CC(=O)Nc1ccc2ncnc(Nc3cccc(Br)c3)c2c1 [N-[4-[(3-bromophenyl)amino]-6-quinazolinyl]-2-butynamide],Number of Polyps,"Group II: 40 mg/kg/day in chow, 60 days, control Group I 32.3 ± 20.7",15.6 ± 10.6
CC1=C(CC(=O)O)c2cc(F)ccc2/C1=C\c1ccc([S+](C)[O-])cc1 (centres unmarked) [sulindac],Number of Polyps,"Group III: 20 mg/kg/day sulindac in chow, 60 days, control Group I 32.3 ± 20.7",10.0 ± 6.6
same,Number of Polyps,"third run, Group III: 5 mg/kg/day sulindac in chow, 60 days, control Group I 19.5 ± 14.1",20.6 ± 11.8
same,polyp numbers (result in words),"third run, sulindac alone at the 5mg/kg dose",did not reduce polyp numbers at all
